This is an account of results in patent publication US7947679B2 (priority 2002, dated 2011).

In series [1] the test system is Botrytis cinerea. The note with it: in vivo.
Series [2] deals with Plasmopara viticola. The note with it: in vivo.
Series [3] concerns Phytophthora infestans. The series is classed as in vivo. The note with it: 200 ppm, tomato leaf disks, preventive, assessed four days after inoculation.

For the compound `CC(C)Nc1nc2ncccc2c(Cl)c1-c1c(F)cc(F)cc1F`, the melting point came out at 202 °C. As for `CC(C)Nc1c(-c2c(F)cc(F)cc2F)c(Cl)nc2ncccc12` [3 (1), [2-chloro-3-(2,4,6-trifluorophenyl)-[1,8]naphthyridin-4-yl]-isopropylamine], the melting point worked out at 193 °C. Further, the control of disease result in series [1] is reported as “greater than 60%”. `CC(C)Nc1c(-c2c(F)cc(F)cc2F)c(Cl)nc2ncc(Br)cc12` [3 (111), [6-bromo-2-chloro-3-(2,4,6-trifluorophenyl)-[1,8]naphthyridin-4-yl]-isopropylamine]: in series [2], the control of disease result was “greater than 60%”. On to `Fc1cc(F)c(-c2c(Cl)nc3ncccc3c2N2CCOCC2)c(F)c1` [20 (1), 2-chloro-4-morpholin-4-yl-3-(2,4,6-trifluorophenyl)-[1,8]naphthyridine], for which the control of disease result in series [3] is given as “greater than 60%”.

By melting point is commonly meant the temperature, or range, at which the solid turns liquid.
